Source: PMC3275140 (Journal of Natural Products, 2011)

What follows are compounds tested on tubulin (assay: Inhibition of tubulin polymerization). Settings: read-out: Inhibition of tubulin polymerization IC50; pure protein assay.
Format: biochemical

Row | Compound | IC50 [µM]
1 | COc1cc(/C=C\c2ccc(OC)c(OP(=O)(O)O)c2O)cc(OC)c1OC [4a (Z), (Z)-1-[3′,4′,5′-Trimethoxyphenyl]-2-[2″-[hydroxy]-3″-[(disodium)phosphate]-4″-methoxyphenyl] ethene] | > 40
2 | COc1ccc(/C=C\c2cc(OC)c(OC)c(OC)c2)c(OP(=O)(O)O)c1O [8a (Z), (Z)-1-[3′,4′,5′-Trimethoxyphenyl]-2-[2″-[(disodium)phosphate]-3″-[hydroxy]-4″-methoxyphenyl] ethene] | > 40
3 | COc1cc(/C=C\c2ccc(OC)c(OP(=O)(O)O)c2OP(=O)(O)O)cc(OC)c1OC [CA1P (Z), reference compound] | > 40
